These results are taken from patent US8143408B2, “N-(8-heteroaryltetrahydronaphtalene-2yl) or N-(5-heteroarylchromane-3-yl) carboxamide derivatives for the treatment of pain” (AstraZeneca AB, priority 2007, dated 2012).

A word on the IC50: it is the point on the concentration scale where inhibition reaches its midpoint. A lower IC50 goes with higher potency.

The target of the assay is T1, Nav1.7 voltage-gated sodium channel (Homo sapiens, UniProt Q15858).
T1 construct: Gene(s) encoding the full-length protein of the voltage-gated sodium channel of interest are cloned and expressed; expressed in transfected cells
T1 sequence (Q15858 whole entry): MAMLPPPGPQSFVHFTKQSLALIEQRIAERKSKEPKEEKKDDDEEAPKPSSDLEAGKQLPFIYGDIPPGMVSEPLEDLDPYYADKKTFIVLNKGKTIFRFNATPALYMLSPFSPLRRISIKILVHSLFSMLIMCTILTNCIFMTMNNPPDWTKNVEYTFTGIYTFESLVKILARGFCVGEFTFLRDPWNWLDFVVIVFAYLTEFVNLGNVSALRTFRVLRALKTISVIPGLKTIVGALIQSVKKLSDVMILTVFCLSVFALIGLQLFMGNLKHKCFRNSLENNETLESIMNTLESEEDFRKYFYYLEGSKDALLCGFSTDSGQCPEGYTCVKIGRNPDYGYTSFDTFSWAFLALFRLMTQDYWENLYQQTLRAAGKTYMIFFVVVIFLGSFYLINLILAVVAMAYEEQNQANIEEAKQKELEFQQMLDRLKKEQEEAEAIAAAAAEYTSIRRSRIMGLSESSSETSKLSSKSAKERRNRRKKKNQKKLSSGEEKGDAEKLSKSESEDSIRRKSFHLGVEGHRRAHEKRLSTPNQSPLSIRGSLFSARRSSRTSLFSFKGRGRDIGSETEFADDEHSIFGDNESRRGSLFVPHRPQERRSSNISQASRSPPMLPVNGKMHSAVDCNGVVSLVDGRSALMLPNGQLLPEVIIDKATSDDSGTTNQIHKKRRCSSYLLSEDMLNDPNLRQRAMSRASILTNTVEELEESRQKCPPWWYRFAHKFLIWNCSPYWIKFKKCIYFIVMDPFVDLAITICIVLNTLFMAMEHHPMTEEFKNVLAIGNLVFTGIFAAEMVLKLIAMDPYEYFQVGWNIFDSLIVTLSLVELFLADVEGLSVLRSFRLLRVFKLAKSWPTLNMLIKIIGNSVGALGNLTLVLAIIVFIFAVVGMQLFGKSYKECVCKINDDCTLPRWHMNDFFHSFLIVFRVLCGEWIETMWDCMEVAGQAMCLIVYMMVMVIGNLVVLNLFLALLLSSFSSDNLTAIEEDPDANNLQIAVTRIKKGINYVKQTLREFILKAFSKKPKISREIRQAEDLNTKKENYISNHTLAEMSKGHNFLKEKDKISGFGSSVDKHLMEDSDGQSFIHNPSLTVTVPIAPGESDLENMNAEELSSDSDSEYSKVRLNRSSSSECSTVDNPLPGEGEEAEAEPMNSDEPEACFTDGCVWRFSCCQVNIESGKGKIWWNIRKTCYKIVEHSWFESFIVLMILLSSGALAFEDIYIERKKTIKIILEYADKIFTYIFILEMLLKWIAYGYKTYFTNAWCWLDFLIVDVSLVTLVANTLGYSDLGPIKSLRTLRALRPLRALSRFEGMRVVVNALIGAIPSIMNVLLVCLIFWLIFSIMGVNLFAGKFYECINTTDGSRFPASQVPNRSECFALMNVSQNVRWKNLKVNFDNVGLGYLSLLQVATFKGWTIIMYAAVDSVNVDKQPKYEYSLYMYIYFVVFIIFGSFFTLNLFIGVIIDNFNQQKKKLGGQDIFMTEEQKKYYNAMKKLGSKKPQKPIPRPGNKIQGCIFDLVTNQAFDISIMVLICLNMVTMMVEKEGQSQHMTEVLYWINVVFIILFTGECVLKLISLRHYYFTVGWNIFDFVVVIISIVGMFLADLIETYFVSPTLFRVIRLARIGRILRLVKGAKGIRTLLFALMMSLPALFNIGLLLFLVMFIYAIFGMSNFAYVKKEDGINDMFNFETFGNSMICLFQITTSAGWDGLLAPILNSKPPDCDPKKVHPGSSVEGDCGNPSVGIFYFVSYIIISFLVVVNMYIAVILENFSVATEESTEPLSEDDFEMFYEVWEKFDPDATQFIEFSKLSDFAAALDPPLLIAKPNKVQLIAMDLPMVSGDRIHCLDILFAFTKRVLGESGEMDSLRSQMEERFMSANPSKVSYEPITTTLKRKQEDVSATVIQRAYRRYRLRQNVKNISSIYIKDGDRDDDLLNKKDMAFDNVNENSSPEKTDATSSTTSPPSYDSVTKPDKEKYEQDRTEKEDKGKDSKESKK
In words: Whole-cell voltage clamp electrophysiology assay. The conditions noted are these: cells stably expressing the voltage-gated sodium channel of interest. The assay is classed as cell-based. From the text:
Gene(s) encoding the full-length protein of the voltage-gated sodium channel of interest are cloned and expressed under a suitable promoter in a suitable cell line, as well known in the art. […] Suitable screening assays are as follows.
Electrophysiological studies can be performed using automated patch-clamp electrophysiology platforms, like IonWorks HT, IonWorks Quattro, PatchXpress, QPatch or any other suitable platform. […] Suitable extracellular and intracellular buffer for such experiments are applied according to the instructions given by the manufacturer of the automated patch-clamp platforms. Cells that express the voltage-gated sodium channel protein of interest are exposed to drugs through the pipetting system integrated in the platforms. A suitable voltage stimulus protocol is used to activate the voltage-gated sodium channel proteins of interest through depolarisation from a defined holding potential.
Electrophysiological studies can also be performed using the whole cell configuration of the standard patch clamp technique. In this assay, cells that express the voltage-gated sodium channel protein of interest are exposed to the drugs by conventional microperfusion systems and a suitable voltage stimulus protocol is used to activate the voltage-gated sodium channels.
As to `O=C(N[C@@H]1COc2cccc(-c3ccncc3)c2C1)c1cnc(OC2CCCC2)nc1` [Example 28, 2-(cyclopentyloxy)-N-[(3S)-5-pyridin-4-yl-3,4-dihydro-2H-chromen-3-yl]Pyrimidine-5-carboxamide], the midpoint of inhibition, the IC50, lay at 100 nM.
`O=C(N[C@@H]1COc2cccc(-c3ccncc3)c2C1)c1ccc(OC2CCC2)nc1` [Example 29, 6-(cyclobutyloxy)-N-[(3S)-5-pyridin-4-yl-3,4-dihydro-2H-chromen-3-yl]nicotin-amide] showed a concentration for half-maximal inhibition (IC50) of 158 nM.
In the case of `O=C(N[C@@H]1COc2cccc(-c3ccncc3)c2C1)c1ccc(OCC2CC2)nc1` [Example 30, 6-(cyclopropylmethoxy)-N-[(3S)-5-pyridin-4-yl-3,4-dihydro-2H-chromen-3-yl]nicotin-amide], the 50% inhibitory concentration (IC50) was 200 nM.
Then `Cc1noc(C)c1-c1cccc2c1C[C@H](NC(=O)c1ccc(OC(C)C)nc1)CC2` [Example 31, N-[(2R)-8-(3,5-dimethylisoxazol-4-yl)-1,2,3,4-tetrahydronaphthalen-2-yl]-6-isopropoxy-nicotinamide], with 2510 nM.
`Cc1noc(C)c1-c1cccc2c1C[C@H](NC(=O)c1cnc(OC3CCCC3)nc1)CC2` [Example 33, 2-(cyclopentyloxy)-N-[(2R)-8-(3,5-dimethylisoxazol-4-yl)-1,2,3,4-tetrahydronaphthalen-2-yl]pyrimidine-5-carboxamide] had an IC50 of 316 nM.
Next, `CCCCS(=O)(=O)c1ccc(C(=O)N[C@@H]2COc3cccc(-c4ccncc4)c3C2)cn1` [Example 34, 6-(butylsulfonyl)-N-[(3S)-5-pyridin-4-yl-3,4-dihydro-2H-chromen-3-yl]nicotinamide]: 631 nM; `O=C(N[C@@H]1COc2cccc(-c3ccncc3)c2C1)c1ccc(Cl)nc1` [Example 35, 6-chloro-N-[(3S)-5-pyridin-4-yl-3,4-dihydro-2H-chromen-3-yl]nicotinamide]: 631 nM; `CC(C)Oc1ncc(C(=O)N[C@@H]2COc3cccc(-c4ccncc4)c3C2)cn1` [Example 36, 2-isopropoxy-N-[(3S)-5-pyridin-4-yl-3,4-dihydro-2H-chromen-3-yl]pyrimidine-5-carboxamide]: 1260 nM.
For the molecule `COc1cnc(C(=O)N[C@@H]2COc3cccc(-c4ccncc4)c3C2)cn1` [Example 37, 5-methoxy-N-[(3S)-5-pyridin-4-yl-3,4-dihydro-2H-chromen-3-yl]pyrazine-2-carboxamide], it took 1000 nM to reach half-maximal inhibition (IC50).
Then `CC(C)Oc1cnc(C(=O)N[C@@H]2COc3cccc(-c4ccncc4)c3C2)cn1` [Example 38, 5-isopropoxy-N-[(3S)-5-pyridin-4-yl-3,4-dihydro-2H-chromen-3-yl]pyrazine-2-carboxamide], with 631 nM; and `CC(C)Oc1ccc(C(=O)N[C@@H]2CCc3cccc(-c4ccncc4F)c3C2)cn1` [Example 39, N-[(2R)-8-(3-fluoropyridin-4-yl)-1,2,3,4-tetrahydronaphthalen-2-yl]-6-isopropoxynicotinamide], with 126 nM.
Then `O=C(N[C@@H]1CCc2cccc(-c3ccncc3F)c2C1)c1ccc(OCC(F)(F)F)nc1` [Example 40, N-[(2R)-8-(3-fluoropyridin-4-yl)-1,2,3,4-tetrahydronaphthalen-2-yl]-6-(2,2,2-trifluoroethoxy)nicotinamide], with 50.1 nM.
Next, `O=C(N[C@@H]1COc2cccc(-c3ccncc3)c2C1)c1cnc2ccccc2n1` [Example 41, N-[(3S)-5-pyridin-4-yl-3,4-dihydro-2H-chromen-3-yl]quinoxaline-2-carboxamide]: 5010 nM; `CC(C)Oc1cnc(C(=O)N[C@@H]2COc3cccc(-c4cccnc4)c3C2)cn1` [Example 42, 5-isopropoxy-N-[(3S)-5-pyridin-3-yl-3,4-dihydro-2H-chromen-3-yl]pyrazine-2-carboxamide]: 1000 nM; `O=C(N[C@@H]1COc2cccc(-c3cccnc3)c2C1)c1cnc(OCCC(F)(F)F)cn1` [Example 43, N-[(3S)-5-pyridin-3-yl-3,4-dihydro-2H-chromen-3-yl]-5-(3,3,3-trifluoropropoxy)pyrazine-2-carboxamide]: 501 nM.
